Publication PMC6199744, “Development of Chemical Proteomics for the Folateome and Analysis of the Kinetoplastid Folateome” (ACS Infectious Diseases, 2018)
Where two headings read alike, the source gives them in different places.

What was measured:
Type in all cases: binding
[1] = biological target: T1, HeLa cell extract proteins (Homo sapiens, UniProt O43747)
T1 construct: endogenous in cells; host or cells: HeLa cell extract
T1 sequence (O43747 1-822): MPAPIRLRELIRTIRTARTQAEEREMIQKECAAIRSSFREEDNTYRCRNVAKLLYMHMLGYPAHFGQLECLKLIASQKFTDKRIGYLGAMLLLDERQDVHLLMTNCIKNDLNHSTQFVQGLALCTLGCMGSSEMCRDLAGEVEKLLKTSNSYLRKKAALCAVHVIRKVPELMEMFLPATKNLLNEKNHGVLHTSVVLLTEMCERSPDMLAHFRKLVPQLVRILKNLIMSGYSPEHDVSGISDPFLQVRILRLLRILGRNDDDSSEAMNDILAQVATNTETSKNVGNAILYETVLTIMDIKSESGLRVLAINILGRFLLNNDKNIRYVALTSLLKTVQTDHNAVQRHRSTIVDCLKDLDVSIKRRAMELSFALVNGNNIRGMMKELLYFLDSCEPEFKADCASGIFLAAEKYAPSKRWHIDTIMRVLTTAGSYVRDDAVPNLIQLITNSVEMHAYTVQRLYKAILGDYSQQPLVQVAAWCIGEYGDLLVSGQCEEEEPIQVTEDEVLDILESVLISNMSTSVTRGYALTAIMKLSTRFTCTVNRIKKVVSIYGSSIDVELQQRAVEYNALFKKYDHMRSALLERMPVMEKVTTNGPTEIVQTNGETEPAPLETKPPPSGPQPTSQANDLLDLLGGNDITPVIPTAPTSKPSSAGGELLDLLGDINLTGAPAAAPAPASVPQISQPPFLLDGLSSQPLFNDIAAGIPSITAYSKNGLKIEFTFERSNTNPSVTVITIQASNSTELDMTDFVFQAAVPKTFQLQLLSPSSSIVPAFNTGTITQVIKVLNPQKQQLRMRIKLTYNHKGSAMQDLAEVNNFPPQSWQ

[2] = biological target: T2, HeLa cell extract proteins (Homo sapiens, UniProt P24539)
T2 construct: endogenous in cells; host or cells: HeLa cell extract
T2 sequence (P24539 43-256): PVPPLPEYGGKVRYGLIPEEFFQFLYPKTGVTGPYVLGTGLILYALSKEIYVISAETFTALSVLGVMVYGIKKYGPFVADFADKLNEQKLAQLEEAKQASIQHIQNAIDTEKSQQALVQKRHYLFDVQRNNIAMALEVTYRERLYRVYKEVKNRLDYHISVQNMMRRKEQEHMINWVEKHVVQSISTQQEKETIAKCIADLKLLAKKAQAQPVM

[3] = biological target: T3, HeLa cell extract proteins (Homo sapiens, UniProt P55060)
T3 construct: endogenous in cells; host or cells: HeLa cell extract
T3 sequence (P55060 1-971): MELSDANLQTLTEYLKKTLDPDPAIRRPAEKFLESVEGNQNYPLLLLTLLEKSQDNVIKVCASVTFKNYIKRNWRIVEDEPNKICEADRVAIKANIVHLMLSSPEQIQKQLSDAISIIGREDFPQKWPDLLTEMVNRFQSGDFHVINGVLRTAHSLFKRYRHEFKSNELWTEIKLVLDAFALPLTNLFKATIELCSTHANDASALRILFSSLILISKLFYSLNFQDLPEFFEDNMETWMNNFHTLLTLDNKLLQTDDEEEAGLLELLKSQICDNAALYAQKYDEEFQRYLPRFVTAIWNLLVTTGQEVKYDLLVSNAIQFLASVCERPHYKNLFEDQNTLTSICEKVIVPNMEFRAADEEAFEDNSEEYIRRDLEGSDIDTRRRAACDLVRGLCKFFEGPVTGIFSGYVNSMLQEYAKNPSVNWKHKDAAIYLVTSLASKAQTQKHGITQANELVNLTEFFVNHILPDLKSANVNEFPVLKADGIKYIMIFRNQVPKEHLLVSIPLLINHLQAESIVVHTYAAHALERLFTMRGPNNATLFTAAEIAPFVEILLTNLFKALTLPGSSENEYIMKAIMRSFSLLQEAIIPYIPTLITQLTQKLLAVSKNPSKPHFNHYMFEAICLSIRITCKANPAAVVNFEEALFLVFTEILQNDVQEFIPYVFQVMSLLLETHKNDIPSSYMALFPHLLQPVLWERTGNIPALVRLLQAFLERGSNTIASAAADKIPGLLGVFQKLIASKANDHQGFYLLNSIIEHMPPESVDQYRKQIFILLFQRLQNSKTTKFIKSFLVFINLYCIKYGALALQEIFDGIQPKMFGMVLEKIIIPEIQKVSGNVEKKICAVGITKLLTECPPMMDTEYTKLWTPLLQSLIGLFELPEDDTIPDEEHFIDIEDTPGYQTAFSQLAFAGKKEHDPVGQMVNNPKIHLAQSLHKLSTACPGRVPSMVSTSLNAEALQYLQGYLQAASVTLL

[4] = biological target: T4, HeLa cell extract proteins (Homo sapiens, UniProt P60228)
T4 construct: endogenous in cells; host or cells: HeLa cell extract

[5] = biological target: T5, HeLa cell extract proteins (Homo sapiens, UniProt P61604)
T5 construct: endogenous in cells; host or cells: HeLa cell extract

[6] = biological target: T6, HeLa cell extract proteins (Homo sapiens, UniProt Q09161)
T6 construct: endogenous in cells; host or cells: HeLa cell extract
T6 sequence (Q09161 1-790): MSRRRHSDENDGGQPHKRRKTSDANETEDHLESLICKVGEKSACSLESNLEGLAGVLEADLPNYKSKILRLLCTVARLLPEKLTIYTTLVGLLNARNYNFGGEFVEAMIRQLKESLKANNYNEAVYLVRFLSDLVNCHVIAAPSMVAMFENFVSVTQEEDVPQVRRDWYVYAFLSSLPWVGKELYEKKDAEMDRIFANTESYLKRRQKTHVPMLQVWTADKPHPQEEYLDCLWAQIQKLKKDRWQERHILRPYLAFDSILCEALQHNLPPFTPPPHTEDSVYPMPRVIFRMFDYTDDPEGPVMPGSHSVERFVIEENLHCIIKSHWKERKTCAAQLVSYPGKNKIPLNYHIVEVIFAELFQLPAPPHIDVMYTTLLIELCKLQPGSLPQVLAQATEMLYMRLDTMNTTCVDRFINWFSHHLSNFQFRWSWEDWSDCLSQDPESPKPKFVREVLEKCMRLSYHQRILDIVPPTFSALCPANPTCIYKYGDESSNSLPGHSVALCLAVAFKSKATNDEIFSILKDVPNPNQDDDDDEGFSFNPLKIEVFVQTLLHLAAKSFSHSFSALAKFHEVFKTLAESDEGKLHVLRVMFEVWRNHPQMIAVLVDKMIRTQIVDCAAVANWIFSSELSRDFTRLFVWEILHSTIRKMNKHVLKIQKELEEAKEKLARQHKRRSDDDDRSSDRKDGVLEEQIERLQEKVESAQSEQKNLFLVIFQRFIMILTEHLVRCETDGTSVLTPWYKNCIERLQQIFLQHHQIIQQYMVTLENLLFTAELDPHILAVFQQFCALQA

T4 sequence (P60228 whole entry): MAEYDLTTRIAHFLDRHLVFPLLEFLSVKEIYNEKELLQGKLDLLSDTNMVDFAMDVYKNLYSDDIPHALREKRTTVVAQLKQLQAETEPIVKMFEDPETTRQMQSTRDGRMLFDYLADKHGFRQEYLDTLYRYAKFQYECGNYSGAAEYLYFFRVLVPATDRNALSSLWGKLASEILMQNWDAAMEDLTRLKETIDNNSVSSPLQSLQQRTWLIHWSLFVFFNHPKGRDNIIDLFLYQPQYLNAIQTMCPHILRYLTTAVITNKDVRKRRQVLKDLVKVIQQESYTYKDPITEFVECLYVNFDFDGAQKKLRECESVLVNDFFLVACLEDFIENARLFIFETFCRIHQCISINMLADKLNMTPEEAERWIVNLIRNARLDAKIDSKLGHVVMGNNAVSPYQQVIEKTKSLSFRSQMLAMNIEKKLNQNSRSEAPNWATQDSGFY
T5 sequence (P61604 whole entry): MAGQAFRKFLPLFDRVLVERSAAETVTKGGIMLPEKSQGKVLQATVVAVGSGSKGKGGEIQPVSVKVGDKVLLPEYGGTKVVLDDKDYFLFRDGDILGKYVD

SMILES | fold changes relative to vehicle control ([1]; protein AP1G1, HeLa) | fold changes relative to vehicle control ([2]; HeLa, protein ATP5F1) | fold changes relative to vehicle control ([3]; protein CSE1L, HeLa) | fold changes relative to vehicle control ([4]; protein EIF3E, HeLa) | fold changes relative to vehicle control ([5]; protein HSPE1, HeLa) | fold changes relative to vehicle control ([6]; captured protein NCBP1, HeLa) | fold changes relative to vehicle control ([1]; HeLa, protein AP1G1) | fold changes relative to vehicle control ([2]; HeLa, captured protein ATP5F1) | fold changes relative to vehicle control ([4]; HeLa, protein EIF3E) | fold changes relative to vehicle control ([5]; HeLa, protein HSPE1) | fold changes relative to vehicle control ([6]; protein NCBP1, HeLa) | fold changes relative to vehicle control [1] | fold changes relative to vehicle control [2] | fold changes relative to vehicle control [3] | fold changes relative to vehicle control [4] | fold changes relative to vehicle control [5] | fold changes relative to vehicle control [6]
Nc1nc2cccc(-c3ccccc3)c2n1Cc1ccc(Cl)c(Cl)c1 [compound 3] | 0.97 | 0.88 | 1.06 | 0.99 | 0.85 | 0.96 |  |  |  |  |  |  |  |  |  |  | 
CCCCCCOc1ccc(Cc2cnc(N)nc2N)cc1 [compound 1] | 1.19 | 1.05 | 1.02 | 1.18 | 1.38 | 0.91 |  |  |  |  |  |  |  |  |  |  | 
NCCCNc1ccc(C(=O)NC(CCC(=O)O)C(=O)O)cc1 (stereo not drawn) [compound 7] |  |  | 1.04 |  |  |  | 1.17 | 1.05 | 1.01 | 1.15 | 0.93 |  |  |  |  |  | 
CCCCCCOc1cccc(Cc2cnc(N)nc2N)c1 [compound 2] | 1.51 | 0.85 | 1.52 | 1.21 | 2.39 | 1.03 |  |  |  |  |  |  |  |  |  |  | 
NCCOCCOCC(=O)Nc1nc2ncc(CNc3ccc(C(=O)NC(CCC(=O)O)C(=O)O)cc3)nc2c(=O)[nH]1 (stereo not drawn) [compound 6] |  |  | 1.09 |  |  |  | 1.17 | 0.96 | 1.11 | 1.69 | 0.89 |  |  |  |  |  | 
Nc1nc2[nH]cc(CCc3ccc(C(=O)N[C@@H](CCC(=O)O)C(=O)O)cc3)c2c(=O)[nH]1 [PTX, pemetrexed] |  |  |  |  |  |  |  |  |  |  |  | 1.09 | 1.13 | 0.88 | 1.04 | 1.42 | 0.95
Nc1nc2c(c(=O)[nH]1)N(C=O)C(CNc1ccc(C(=O)N[C@@H](CCC(=O)O)C(=O)O)cc1)CN2 (stereo partly drawn) [LEU, leucovorin] |  |  | 0.94 |  |  |  | 1.1 | 1.15 | 1.15 | 1.16 | 0.81 |  |  |  |  |  | 
